Test results as given in patent publication US20230165835A1, “METHODS OF TREATING ACUTE LUNG INJURY USING EBSELEN” (SOUND PHARMACEUTICALS INC., priority 2020, published 2023).
“Also recorded” adds a separate entry of the source. Read-outs that look alike come from different tables or passages of the source.

How the values were obtained:
[1] = Cystic fibrosis trial Part 2 Intervention: tobramycin-induced ototoxicity; format: in vivo, human
Description: (§1) Thirty of 80 participants were enrolled starting in January 2019. They were Cystic fibrosis patients ages 18-70 that had acute pulmonary exacerbation or acute respiratory infections that required treatment with IV tobramycin 10 mg/kg/d for 10-21 days. They were randomized into four groups (1:1:1:1) (0, 200, 400, or 600 BID) and treated for 21 days. There were four follow-up visits for safety (adverse events, spirometry, labs), and two follow-up visits for efficacy (audiometric and vestibular). The primary endpoint was a reduction in cochleotoxic change, and the secondary endpoints was a reduction in tinnitus or vertigo severity.

SARS-CoV-2 = experiment: Reduction of SARS-CoV-2 viral load in Vero E6 cells (image based assay of Jin et al.); format: cell-based
[2] = Study 6.6: ebselen in severe COVID-19; format: in vivo, human; conditions: 400 or 800 mg BID for 14 days
nCoV2 = experiment: Study 6.2: ebselen in nCoV2 positive subjects with no to mild COVID-19, viral load; conditions: 400 to 600 mg BID for 7-10 days, no to mild disease
Description: Eligible participants are diagnosed as nCoV2 positive and enrolled for treatment within 1-5 days of appearance of symptoms. The patient is not treated with another anti-viral therapeutic agent prior to beginning of treatment. […] Randomization is stratified by age (<60 years or ≥60 years).
Ebselen is dosed as 400 to 600 mg BID for a period of 7-10 days. […] Participants receive study intervention for up to 10 days and are followed for 28 days after first dose.
Respiratory samples are taken before treatment begins and daily during treatment to assess nCoV2 viral load daily.
The primary efficacy endpoint is the time to significant reduction in pre-treatment viral load (see Zou et al.; Pan et al.). […] Other efficacy assessments are also performed and compared to baseline levels.
Follow-up assessments can be performed at 2, 4, and 8 weeks after the start of treatment. […] Extended dosing involves sub-chronic dosing of 4-12 weeks (e.g., 4, 8 or 12 weeks) with assessment of viral load until virus eliminated.

[3] = Cystic fibrosis trial (IV tobramycin + SPI-1005 0/200/400/600 BID, 21 days): FEV1; format: in vivo, human
Description: as §1

[4] = molecular target: COVID-19 virus main protease (M^pro) (Severe acute respiratory syndrome coronavirus 2, UniProt P0DTD1); conditions: Jin et al.; cited from earlier work
[5] = Study 6.3: ebselen in mild to moderate COVID-19; format: in vivo, human; conditions: 400 to 600 mg BID for 14 to 21 days
Vero E6 cells = experiment: Cytotoxicity / cell viability in Vero E6 cells; format: cell-based
[6] = Part 2 Intervention (1:1:1:1) pooled

**Q.** For `O=c1c2ccccc2[se]n1-c1ccccc1` [ebselen, 2-phenyl-1,2-benzisoselenazol-3(2H)-one], which “ototoxic change versus Part 1 Observational study” value ([1]; 4 weeks after IV tobramycin treatment) is on record?
**A.** Its value is “lower levels of ototoxic change”.

**Q.** And the “% Responders (Bilateral), Conv + SRO” value [1, 6]?
**A.** Its value is 29%.

**Q.** What about the “% Responders (Bilateral), Conventional” value [1, 6] of the same compound?
**A.** Its value is 5%.

**Q.** What about the “% Responders (Bilateral), DPOAE” value [1, 6] of the same compound?
**A.** Its value is 40%.

**Q.** And the “% Responders (Bilateral), SRO” value [1, 6]?
**A.** The value was 21%.

**Q.** What about the “% Responders (Bilateral), WINT” value [1, 6] of the same compound?
**A.** Its value is 0%.

**Q.** And the “% Responders (Unilateral), Conv + SRO” value [1, 6]?
**A.** The value was 29%.

**Q.** And the “% Responders (Unilateral), Conventional” value [1, 6]?
**A.** Its value is 5%.

**Q.** And the “% Responders (Unilateral), DPOAE” value [1, 6]?
**A.** Its value is 40%.

**Q.** What about the “% Responders (Unilateral), SRO” value [1, 6] of the same compound?
**A.** The value was 37%.

**Q.** And the “% Responders (Unilateral), WINT” value [1, 6]?
**A.** The value was 26%.

**Q.** What about the “% Responders, Conv + SRO” value [1, 6] of the same compound?
**A.** The value was 57%.

**Q.** And the “% Responders, DPOAE” value [1, 6]?
**A.** Its value is 80%.

**Q.** What about the “% Responders, SRO” value [1, 6] of the same compound?
**A.** Its value is 58%.

**Q.** What about the “% Responders, TFI” value [1, 6] of the same compound?
**A.** The value was 14%.

**Q.** What about the “% Responders, TL” value [1, 6] of the same compound?
**A.** The value was 0%.

**Q.** What about the “% Responders, VSS” value [1, 6] of the same compound?
**A.** The value was 5%.

**Q.** What about the “% Responders, WINT” value [1, 6] of the same compound?
**A.** Its value is 26%.

**Q.** And the “% Responders, Conventional” value ([1]; Part 2 Intervention (1:1:1:1; 0, 200, 400, 600 BID pooled) with IV tobramycin, 4 weeks post-treatment)?
**A.** The value was 10%.

**Q.** What about the EC50 (SARS-CoV-2; SARS-CoV-2, ebselen 100 nM to 1000 μM in DMSO or EtOH, remdesivir 1 nM to 10 μM, listed as ebselen (EtOH), read-out: EC50, reduction in viral load in Vero E6 cells) of the same compound?
**A.** The EC50 was 10.9 µM.

**Q.** And the EC50 (SARS-CoV-2; Severe acute respiratory syndrome coronavirus 2, Vero C1008, SARS-CoV-2, ebselen 100 nM to 1000 μM in DMSO or EtOH, remdesivir 1 nM to 10 μM, read-out: EC50, reduction in viral load in Vero E6 cells)?
**A.** Its EC50 is 21.3 µM.

**Q.** What about the EC50 (SARS-CoV-2; Severe acute respiratory syndrome coronavirus 2, Vero C1008, Vero E6 cells, ebselen added in DMSO, read-out: EC50, inhibition of viral load) of the same compound?
**A.** Its EC50 is 21 µM.

**Q.** And the EC50 (SARS-CoV-2; Severe acute respiratory syndrome coronavirus 2, Vero C1008, Vero E6 cells, ebselen added in EtOH, read-out: EC50, inhibition of viral load)?
**A.** The EC50 was 11 µM.

**Q.** What about the “inhibition of viral load (FIGS. 1A-C)” value (SARS-CoV-2; in vitro kidney cell assay (Vero E6 cells)) of the same compound?
**A.** The value was “inhibited viral load”.

**Q.** And the “respiratory status / time to clinical improvement (WHO ordinal scale)” value [2]?
**A.** Its value is “effective to improve in respiratory status, and/or reduce time to at least a 2-grade improvement from baseline on the WHO ordinal scale”.

**Q.** And the viral load (nCoV2)?
**A.** Its viral load is “effective to reduce viral load”.

**Q.** And the “change in lung functioning (FEV1)” value ([3]; 2 and 4 weeks, cystic fibrosis patients on IV tobramycin, versus Part 1 observation study)?
**A.** Its value is “improvement in lung functioning (FEV1) at both 2 and 4 weeks; also recorded: improved relative FEV1% predicted at 2 and 4 weeks”.

**Q.** And the “FEV1 score Mean (SD), 2 Week” value ([3]; pooled 0/200/400/600 BID groups, baseline 46.87 (13.68), n 17)?
**A.** The value was 48.53 (14.57).

**Q.** And the “FEV1 score Mean (SD), 4 Week” value ([3]; pooled 0/200/400/600 BID groups, baseline 46.87 (13.68), n 19)?
**A.** The value was 52.68 (22.99).

**Q.** And the “in vitro inhibition activity against M^pro protease” value [4]?
**A.** The value was “modest in vitro inhibition activity”.

**Q.** What about the “respiratory status and progression to severe disease” value [5] of the same compound?
**A.** Its value is “effective to improve in respiratory status and prevent progression to severe disease”.

**Q.** And the “cell viability at the EC50” value (Vero E6 cells)?
**A.** The value was 100%.

**Q.** What about the “effect on cell viability” value (Vero E6 cells; ebselen: at ranges slightly higher than EC50) of the same compound?
**A.** The value was “cell viability was decreased”.

**Q.** And the CC50 (Vero E6 cells; listed as ebselen (DMSO))?
**A.** Its CC50 is > 1000 µM.

**Q.** And the CC50 (Vero E6 cells; listed as ebselen (EtOH))?
**A.** Its CC50 is > 100 µM.
